Assay results taken from the supplement of paper PMC8497498.

Key:
Conditions in all cases: assay mode: Radical Cure, 8-day (treatment from day 5 post-infection)
[1] = system: Plasmodium vivax liver stage (primary human hepatocyte culture)
Protocol: (§1)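 Dose-response of P. vivax liver stages in primary human hepatocytes, with 8 points (10 uM-[…], v1) or 12 points in duplicate (50 uM-280 pM, v2). Read-out is high-content imaging of schizont net growth area, hypnozoite quantity and hepatic nuclei. EC50 and CC20 (20% nuclei loss) were fitted in CDD Vault from the highest-quality independent experiment; toxic-dose bell-shaped points were masked. '>' marks the highest concentration with less than 50% activity, and ND means a non-sigmoidal curve.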

[2] = system: primary human hepatocytes; test: CC20 hepatic nuclei (20% reduction); higher = less toxic
Protocol: as §1

[3] = system: Plasmodium vivax liver stage (primary human hepatocyte culture); test: maximum inhibition of schizont net growth area; higher = more active
Protocol: as §1

[4] = P. vivax isolate: Pv395, hepatocyte lot: UBV
[5] = P. vivax isolate: Pv657, hepatocyte lot: BGW
[6] = P. vivax isolate: Pv728, hepatocyte lot: BGW
[7] = P. vivax isolate: Pv557, hepatocyte lot: UBV
[8] = P. vivax isolate: Pv668, hepatocyte lot: BGW
[9] = P. vivax isolate: Pv590, hepatocyte lot: UBV
[10] = P. vivax isolate: Pv458, hepatocyte lot: UBV
[11] = P. vivax isolate: Pv756, hepatocyte lot: BGW

Compound: c1ccc(-c2csc(Nc3nc4cc5c(cc4s3)OCO5)n2)nc1
- EC50 hypnozoite quantity [1, 4]: > 10 µM
- EC50 schizont net growth area [1, 4]: > 3.33 µM
- CC20 hepatic nuclei [2, 4]: > 10 µM
- maximum inhibition [3, 4]: 72.6%

Compound: CC(C)(C)n1nc(-c2ccccc2)c2c(N)ncnc21
- EC50 hypnozoite quantity [1, 5]: > 50 µM
- EC50 schizont net growth area [1, 5]: > 16.7 µM
- CC20 hepatic nuclei [2, 5]: > 50 µM
- maximum inhibition [3, 5]: 76.7%

Compound: CC1(CN2CCC(n3c(O)nc4ccccc43)CC2)OCc2ccccc2-n2cccc21 (stereo not given)
- EC50 hypnozoite quantity [1, 6]: > 10 µM
- EC50 schizont net growth area [1, 6]: 0.395 µM
- CC20 hepatic nuclei [2, 6]: > 10 µM
- maximum inhibition [3, 6]: 99.2%

Compound: Cc1ccnc(Nc2nc(-c3ccccn3)cs2)c1
- EC50 hypnozoite quantity [1, 7]: > 50 µM
- EC50 schizont net growth area [1, 7]: 1.79 µM
- CC20 hepatic nuclei [2, 7]: > 5.56 µM
- maximum inhibition [3, 7]: 84.1%

Compound: Cc1ccc(Nc2nc(-c3ccccn3)cs2)nc1
- EC50 hypnozoite quantity [1, 8]: 19.9 µM
- CC20 hepatic nuclei [2, 8]: > 50 µM
- maximum inhibition [3, 8]: 90.9%

Compound: CCN(CC)CCCNc1nc(-c2ccc(Cl)cc2)nc2ccccc12
- EC50 hypnozoite quantity [1, 9]: > 50 µM
- EC50 schizont net growth area [1, 9]: > 5.56 µM
- CC20 hepatic nuclei [2, 9]: 40.2 µM
- maximum inhibition [3, 9]: 99.6%

Compound: CCOc1ccc(CCC2CCN(C(C)c3nc(N)nc(N(C)C)n3)CC2)cc1 (stereo not given)
- EC50 hypnozoite quantity [1, 4]: > 10 µM
- EC50 schizont net growth area [1, 4]: > 3.33 µM
- CC20 hepatic nuclei [2, 4]: > 10 µM
- maximum inhibition [3, 4]: 64.7%

Compound: CCOc1ccc2nc(C)cc(Nc3ccc(N(C)C)cc3)c2c1
- EC50 hypnozoite quantity [1, 9]: > 50 µM
- EC50 schizont net growth area [1, 9]: > 16.7 µM
- CC20 hepatic nuclei [2, 9]: 16.2 µM
- maximum inhibition [3, 9]: 84.6%

Compound: CC[C@H](NC(=O)[C@H](C)NC)C(=O)N1C[C@@H](O)C[C@H]1Cc1c(-c2[nH]c3cc(F)ccc3c2C[C@@H]2C[C@H](O)CN2C(=O)[C@H](CC)NC(=O)[C@H](C)NC)[nH]c2cc(F)ccc12
- EC50 hypnozoite quantity [1, 8]: > 50 µM
- CC20 hepatic nuclei [2, 8]: > 5.56 µM
- maximum inhibition [3, 8]: 73%

Compound: CC[C@H]1CN2CCc3cc(OC)c(OC)cc3[C@@H]2C[C@@H]1C[C@H]1NCCc2cc(OC)c(OC)cc21
- EC50 hypnozoite quantity [1, 8]: > 50 µM
- EC50 schizont net growth area [1, 8]: 0.306 µM
- CC20 hepatic nuclei [2, 8]: 2.42 µM
- maximum inhibition [3, 8]: 107%

Compound: CCn1ncc2c(NC3CCOCC3)c(CNC(=O)c3ccnn3C)c(C)nc21
- EC50 hypnozoite quantity [1, 6]: > 50 µM
- EC50 schizont net growth area [1, 6]: 0.0266 µM
- CC20 hepatic nuclei [2, 6]: > 50 µM
- maximum inhibition [3, 6]: 103%

Compound: CN(C(=O)c1cc2c(-c3cncnc3)cccc2[nH]1)c1ccccc1
- EC50 hypnozoite quantity [1, 5]: > 50 µM
- EC50 schizont net growth area [1, 5]: 3.11 µM
- CC20 hepatic nuclei [2, 5]: > 50 µM
- maximum inhibition [3, 5]: 84.7%

Compound: CN(C)CCCNc1c2ccccc2nc2ccccc12
- EC50 hypnozoite quantity [1, 8]: > 50 µM
- EC50 schizont net growth area [1, 8]: 9.24 µM
- CC20 hepatic nuclei [2, 8]: 5.73 µM
- maximum inhibition [3, 8]: 108%

Compound: CN1CCN(C(c2cccs2)c2ccc3cccnc3c2O)CC1 (stereo not given)
- EC50 hypnozoite quantity [1, 10]: > 10 µM
- CC20 hepatic nuclei [2, 10]: > 10 µM
- maximum inhibition [3, 10]: 60.5%

Compound: CN1CCN(c2ccc(Nc3c4ccccc4nc4ccccc34)cc2)CC1
- EC50 hypnozoite quantity [1, 8]: > 50 µM
- EC50 schizont net growth area [1, 8]: 6.04 µM
- CC20 hepatic nuclei [2, 8]: 5.55 µM
- maximum inhibition [3, 8]: 111%

Compound: CNC(=S)N/N=C(\C)c1ccccn1
- EC50 hypnozoite quantity [1, 8]: 1.92 µM
- EC50 schizont net growth area [1, 8]: 4.44 µM
- CC20 hepatic nuclei [2, 8]: > 50 µM
- maximum inhibition [3, 8]: 100%

Compound: COc1cc(-c2cc(-c3ccc(S(C)(=O)=O)cc3)cnc2N)ccc1O
- EC50 hypnozoite quantity [1, 5]: > 50 µM
- EC50 schizont net growth area [1, 5]: > 16.7 µM
- CC20 hepatic nuclei [2, 5]: > 50 µM
- maximum inhibition [3, 5]: 80.2%

Compound: COc1ccc(-c2cncc3ccc(C(=O)NCCCn4ccnc4)nc23)cc1
- EC50 hypnozoite quantity [1, 5]: > 50 µM
- EC50 schizont net growth area [1, 5]: 26 µM
- CC20 hepatic nuclei [2, 5]: 44.8 µM
- maximum inhibition [3, 5]: 70.8%

Compound: COc1ccc(C(=O)C(CCC(CNC(C)(C)C)C(=O)c2ccc(OC)cc2)CNC(C)(C)C)cc1 (stereo not given)
- EC50 hypnozoite quantity [1, 6]: > 50 µM
- EC50 schizont net growth area [1, 6]: 16.6 µM
- CC20 hepatic nuclei [2, 6]: 40.8 µM
- maximum inhibition [3, 6]: 88.7%

Compound: COc1ccc(-c2c(C)nn3c(N)c(C#N)cnc23)cc1OC
- EC50 hypnozoite quantity [1, 9]: > 50 µM
- EC50 schizont net growth area [1, 9]: 0.599 µM
- CC20 hepatic nuclei [2, 9]: > 50 µM
- maximum inhibition [3, 9]: 95.7%

Compound: COc1ccc(-c2cnc3ccc(N4CCCC4)nn23)cc1OC
- EC50 hypnozoite quantity [1, 11]: > 50 µM
- EC50 schizont net growth area [1, 11]: > 16.7 µM
- CC20 hepatic nuclei [2, 11]: > 16.7 µM
- maximum inhibition [3, 11]: 103%

Compound: COc1ccc(-c2nn(C(C)C)c3ncnc(N)c23)cc1OC
- EC50 hypnozoite quantity [1, 5]: > 50 µM
- EC50 schizont net growth area [1, 5]: 0.294 µM
- CC20 hepatic nuclei [2, 5]: > 50 µM
- maximum inhibition [3, 5]: 71.3%
